This assay concerns pancreatic cancer cell line SW1990. As to the kind of experiment: Relative quantitation of sialylated N-glycans from SW1990 cells with and without 1,3,4-O-Bu3ManNAc treatment (light/heavy p-toluidine labeling, MALDI-MS). The format is cell-based. Conditions: for H/L: SW1990 cells treated (heavy) vs untreated (light), glycan Core+Na. On the procedure:
Proteins were immobilized to amino link beads via reductive amination. Briefly, AminoLink resin (200 μL) was loaded onto snap-cap spin-column, centrifuged at 2000 g for 1 minute. Resin was washed with 450 μL of pH 10 buffer (Sodium citrate 100 mM and sodium carbonate 50 mM) followed by centrifugation. The washing step was repeated twice. Proteins dissolved in pH 10 buffer were loaded onto prepared AminoLink resin in snap-cap spin-column in 1 mg/200 μL beads ratio. The volume was adjusted to 450 μL using pH 10 buffer. Sample-resin mixture was incubated at room temperature overnight. The mixture was centrifuged at 2000 g to remove any unbound protein. Resin was rinsed by 1×PBS buffer (Sigma-Aldrich; pH 7.4; 450 μL) three times. PBS buffer in the presence of 50 mM sodium cyanoborohydride (450 μL) was added to resin (spin-column capped during each incubation step). After a four hour incubation, supernatant was removed via centrifugation (2000 g) and 450 μL of 1 M Tris-HCl (pH 7.6) in the presence of 50 mM sodium cyanoborohydride was added to block un-reacted aldehyde sites of resin. The blocking process was terminated after 1 hour, followed by washing of resin with PBS twice, 1M […] twice and water three times.
Proteins conjugated on solid support were mixed with 450 μL of 1M p-toluidine and 40 μL of EDC at pH 4.5 adjusted using HCl. After incubation for 4 hours, beads were washed twice with 500 μL of 1M NaCl and water followed by 50 mM ammonium bicarbonate, three times for each solution, and treated with 100 units of PNGase F in 0.3 mL of 50 mM ammonium bicarbonate overnight at 37° C. to release N-glycans from proteins. Nglycans released in the supernatant were subsequently collected. The N-glycans released from glycoproteins were further purified and concentrated over Carbograph columns (Extract-Clean SPE Carbo 150 mg; Grace Division Discovery Science; Deerfield, Ill.) and eluted in 0.1% TFA 50% acetonitrile/water following the manufacturer's instruction (Grace Davison Discovery Sciences, Milwaukee, Wis.). Glycans were then dried in Savant Speed-Vac (Thermo Scientific, Asheville, N.C.).
Glycans were resuspended in 20 μL of water. Sample 1.5 μL was mixed 1.5 μL of matrix on a 384-well goals MALDI plate (Hudson Surface Technology, Fort Lee, N.J.). DHB matrix solution was prepared by dissolving 100 mg of DHB in 1 mL of a 1:1 solution of water and ACN followed by addition of 40 μL of dimethylaniline. Glycans were analyzed by Shimadzu AXIMA Resonance Mass Spectrometer (Shimadzu, Columbia, Md.) in positive mode.
It has been well established that the extent of glycan sialylation depends on sialyltransferases, the biosynthetic enzymes responsible for adding a sialic acid to an underlying galactose or GalNAc residue. […] To fill this void, in the present invention we profiled N-glycans in SW1990 treated with 1,3,4-O-Bu3ManNAc as previously described. Protein extract from 1,3,4-O-Bu3ManNAc treated SW1990 cells and untreated control cells were conjugated to solid support and labeled with isotopic p-toluidine as described above. The mass spectrometric analysis of labeled glycans identified 87 N-glycans based on accurate mass (data not shown). Sialic acid compositional assignment was determined based on the differences of heavy and light labeled glycans. Twenty one heavy and light glycan peaks were identified with a mass shift of 7 or a multiple of 7, confirming that the presence of 21 sialylated glycans (FIGS. 13A and 13B). Qualitative analysis of N-glycans from cells with and without ManNAc treatment using isotopic labeling of sialylated N-glycans with 1:1 combined samples identified and quantified 14 sialylated glycans (Table 5). Seven other sialylated Nglycans could not be quantified due to low signal to noise ratio when the two samples were combined for MS analysis.

In the case of `CCCC(=O)OC1O[C@H](CO)[C@@H](OC(=O)CCC)[C@H](OC(=O)CCC)[C@@H]1NC(C)=O` (stereo partly shown) [1,3,4-O—Bu3ManNAc, 1,3,4-O-Bu3ManNAc], the H/L is 1.29 (Fucose 0, HexNAc 2, Hexose 2, Sialic Acid 1, [M+Na] 2043.89); 1.09 (Fucose 1, HexNAc 2, Hexose 2, Sialic Acid 1, [M+Na] 2189.95); 1.02 (Fucose 1, HexNAc 2, Hexose 2, Sialic Acid 2, [M+Na] 2570.21); 1.95 (Fucose 1, HexNAc 3, Hexose 2, Sialic Acid 1, [M+Na] 2393.04); 1.70 (Fucose 1, HexNAc 3, Hexose 2, Sialic Acid 2, [M+Na] 2773.31); 1.31 (Fucose 1, HexNAc 3, Hexose 3, Sialic Acid 1, [M+Na] 2555.10). The molecule also registered a H/L (Fucose 1, HexNAc 3, Hexose 3, Sialic Acid 2, [M+Na] 2935.36) of 0.98; a H/L (Fucose 1, HexNAc 4, Hexose 3, Sialic Acid 1, [M+Na] 2758.19) of 1.66; a H/L (Fucose 2, HexNAc 2, Hexose 2, Sialic Acid 1, [M+Na] 2336.01) of 1.10; a H/L (Fucose 2, HexNAc 3, Hexose 2, Sialic Acid 1, [M+Na] 2539.10) of 1.31; a H/L (Fucose 2, HexNAc 3, Hexose 3, Sialic Acid 1, [M+Na] 2701.15) of 1.03; a H/L (Fucose 2, HexNAc 4, Hexose 3, Sialic Acid 1, [M+Na] 2904.25) of 2.04. The same molecule showed a H/L (Fucose 3, HexNAc 3, Hexose 2, Sialic Acid 1, [M+Na] 2585.15) of 1.00 and a H/L (Fucose 3, HexNAc 4, Hexose 3, Sialic Acid 1, [M+Na] 3050.31) of 1.39. Besides, the “decrease in sialylated N-glycans when cells were treated” value (SW1990 cells, treated vs untreated) was “no significant decrease”. The “number of sialylated N-glycan compositions with a significant increase in abundance” value (SW1990 cells, treated vs untreated, 14 sialylated glycans quantified) is “six”.

Source of the values: patent US20150233903A1, “SOLID PHASE GLYCAN AND GLYCOPEPTIDE ANALYSIS AND MICROFLUIDIC CHIP FOR GLYCOMIC EXTRACTION, ANALYSIS AND METHODS FOR USING SAME” (THE JOHNS HOPKINS UNIVERSITY, priority 2012, published 2015).
